Assay [1] addresses T1, recombinant human ALG13/14 complex (FLAG-ALG13-iso2/6His-ALG14) (Homo sapiens, UniProt Q96F25+Q9NP73).
T1 construct: pelB-FLAG-ALG13-iso2 (25 kDa on SDS-PAGE) and 6His-ALG14 (22 kDa) co-expressed in E. coli Rosetta (DE3); purified from Triton X-100 membrane extract by HisTrap and anti-FLAG; tags kept; heterodimer, 45-66 kDa on native PAGE
T1 sequence (Q9NP73 1-165 isoform Q9NP73-2): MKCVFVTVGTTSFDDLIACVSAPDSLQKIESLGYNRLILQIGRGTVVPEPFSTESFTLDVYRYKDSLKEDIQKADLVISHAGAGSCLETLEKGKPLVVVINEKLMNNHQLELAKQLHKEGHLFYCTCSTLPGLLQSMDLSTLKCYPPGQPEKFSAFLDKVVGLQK
T1 sequence (Q96F25 1-216): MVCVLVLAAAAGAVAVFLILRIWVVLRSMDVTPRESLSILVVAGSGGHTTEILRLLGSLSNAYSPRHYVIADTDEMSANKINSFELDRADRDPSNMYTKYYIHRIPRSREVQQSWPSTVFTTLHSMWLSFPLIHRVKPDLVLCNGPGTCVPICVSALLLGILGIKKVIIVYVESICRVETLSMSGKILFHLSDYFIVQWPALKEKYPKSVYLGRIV
The experiment in a line: LC-MS (UPLC-ESI-MS) of acid-released glycans, Michaelis-Menten fit. Format: biochemical. Conditions: acceptor 20-100 μM; 2 mM UDP-GlcNAc fixed; Tris/HCl pH 7.5, 0.3% NP-40, 23% glycerol, 37 °C, 15 min; no added metal; read-out: K m (apparent).

For assay [2], the target named is T2, 6His-ALG14 (human ALG14) (human) (UniProt Q96F25).
T2 sequence: T1 sequence (Q96F25 1-216)

Positions count from the first letter of the chain named. Names and notes keep the numbering of the source.

For the molecule `CC(=O)N[C@H]1[C@@H](OP(=O)(O)OP(=O)(O)OCC[C@@H](C)CC/C=C(/C)CC/C=C(/C)CC/C=C(/C)CC/C=C(/C)CC/C=C(/C)CC/C=C(/C)CC/C=C(/C)CC/C=C(/C)CC/C=C(/C)CC/C=C(/C)CC/C=C(/C)CC/C=C(/C)CC/C=C(/C)CC/C=C(/C)CC/C=C(/C)CC/C=C(\C)CC/C=C(\C)CCC=C(C)C)O[C@H](CO)[C@@H](O)[C@@H]1O` [Gn-PDol (C95)], the Km in assay [1] stood at 94.1 ± 9.4 µM.

B1: FLAG-tagged ALG13-iso2 T141L (natural protein)
chain: T1 sequence (Q9NP73 1-165 isoform Q9NP73-2) with T141L
Consider B1, for which the Relative activity (%): GnTase conversion rate of the mutant / that of the wild type, detergent extract of E. coli membranes, 0.1 ng/ul ALG13, 37°C, 15 min in assay [2] is 26%.

These data come from article PMC9527342, “An in vitro assay for enzymatic studies on human ALG13/14 heterodimeric UDP-N-acetylglucosamine transferase” (Frontiers in Cell and Developmental Biology, 2022).
